Legend:
Format in all cases: in vivo
Alopecurus myosuroides = experiment: Field trial with cereals (wheat), herbicidal action; conditions: application at start of stocking, scoring 3 weeks after application
Protocol: (§1) Transgenic cereal plants with a resistance to one or more herbicides (A) together with typical weed plants were grown in the open on 2×5 m plots under natural field conditions; alternatively, weed infestation occurred naturally when the cereal plants were grown.
(§2) […] The damage to, and the development of, all aerial parts of the plants was recorded. Scoring was done on the basis of a percentage sale (100% action=all plants destroyed; 50% action=50% of the plants and green parts of the plants destroyed; 0% action=no recognizable effect=like control plot. The mean of the score values of in each case 4 plots was calculated.

Digitaria Sanguinalis = experiment: as above; conditions: application at start of stocking, scoring 3 weeks after application
Protocol: as §1, §2

Ambrosia maritima = experiment: Field trial with cereal (wheat), herbicidal action; conditions: application at start of stocking, scoring 11 days after application
Protocol: as §1, §2

Lolium multiflorum = experiment: Field trial with cereal (wheat), herbicidal action; conditions: for Herbicidal action (%) against Lolium multiflorum: scoring 27 days after application
Protocol: as §1, §2

Galium aparine = experiment: Field trial with cereal (wheat), herbicidal action; conditions: application at 4-leaf stage, scoring 28 days after application
Protocol: as §1
(§3) 2, 4, 6 and 8 weeks after the application, the herbicidal activity of the active substances or active substance mixtures was scored visually with reference to the treated plots in comparison to untreated control plots. The damage to, and the development of, all aerial parts of the plants was recorded. Scoring was done on the basis of a percentage sale (100% action=all plants destroyed; 50% action=50% of the plants and green parts of the plants destroyed; 0% action=no recognizable effect=like control plot. The mean of the score values of in each case 4 plots was calculated.

Lamium purpureum = experiment: Field trial with cereal (wheat), herbicidal action; conditions: application at 4-leaf stage, scoring 28 days after application
Protocol: as §1, §3

[1] = Lolium multiflorum, read-out: Herbicidal action (%) against Lolium multiflorum

CP(=O)(O)CCC(N)C(=O)O (centres unmarked) [(A1.2), glufosinate-ammonium]
Herbicidal action (%) against Alopecurus myosuroides (Alopecurus myosuroides; 200 g of a.s./ha): 55%
Herbicidal action (%) against Alopecurus myosuroides (Alopecurus myosuroides; 400 g of a.s./ha): 83%
Herbicidal action (%) against Alopecurus myosuroides (Alopecurus myosuroides; 600 g of a.s./ha): 93%
Herbicidal action (%) against Digitaria Sanguinalis (Digitaria Sanguinalis; 200 g of a.s./ha): 45%
Herbicidal action (%) against Digitaria Sanguinalis (Digitaria Sanguinalis; 400 g of a.s./ha): 90%
Herbicidal action (%) against Digitaria Sanguinalis (Digitaria Sanguinalis; 600 g of a.s./ha): 99%
Herbicidal action (%) against Ambrosia maritima (Ambrosia maritima; 200 g of a.s./ha): 58%
Herbicidal action (%) against Ambrosia maritima (Ambrosia maritima; 400 g of a.s./ha): 100%
Herbicidal action (%) against Ambrosia maritima (Ambrosia maritima; 600 g of a.s./ha): 100%
pest or weed control at 200 g/ha (Lolium multiflorum; [1]): 0%
pest or weed control at 330 g/ha (Lolium multiflorum; [1]): 15%
pest or weed control at 500 g/ha (Lolium multiflorum; [1]): 78%
Herbicidal action (%) against Galium aparine (Galium aparine; 100 g of a.s./ha): 0%
Herbicidal action (%) against Galium aparine (Galium aparine; 200 g of a.s./ha): 0%
Herbicidal action (%) against Galium aparine (Galium aparine; 300 g of a.s./ha): 0%
Herbicidal action (%) against Lamium purpureum (Lamium purpureum; 200 g of a.s./ha): 8%
Herbicidal action (%) against Lamium purpureum (Lamium purpureum; 330 g of a.s./ha): 35%

CCc1cnc(C2=NC(C)(C(C)C)C(=O)N2)c(C(=O)O)c1 (centres unmarked) [(A3.2), imazethapyr]
pest or weed control at 70 g/ha (Lolium multiflorum; Lolium multiflorum, wheat field trial, 70 g of a.s./ha, application at 3-leaf stage, scoring after application, read-out: Herbicidal action (%) against Lolium multiflorum): 0%

CC(C)c1ccc(NC(=O)N(C)C)cc1 [(B1.1.1), isoproturon]
pest or weed control at 1500 g/ha (Lolium multiflorum; Lolium multiflorum, wheat field trial, 1500 g of a.s./ha, application at 3-leaf stage, scoring after application, read-out: Herbicidal action (%) against Lolium multiflorum): 55%

CC(C)N(C(=O)COc1nnc(C(F)(F)F)s1)c1ccc(F)cc1 [(B1.1.3), fluthiamide]
pest or weed control at 180 g/ha (Lolium multiflorum; Lolium multiflorum, wheat field trial, 180 g of a.s./ha, application at 3-leaf stage, scoring after application, read-out: Herbicidal action (%) against Lolium multiflorum): 25%

CCC(CC)Nc1c([N+](=O)[O-])cc(C)c(C)c1[N+](=O)[O-] [(B1.1.5), pendimethalin]
Herbicidal action (%) against Lamium purpureum (Lamium purpureum; 960 g of a.s./ha): 75%

C#CCOC(=O)[C@@H](C)Oc1ccc(Oc2ncc(Cl)cc2F)cc1 [(B1.2.2), clodinafop-propargyl]
pest or weed control at 50 g/ha (Lolium multiflorum; Lolium multiflorum, wheat field trial, 50 g of a.s./ha, application at 3-leaf stage, scoring after application, read-out: Herbicidal action (%) against Lolium multiflorum): 73%

COC(=O)C(C)Oc1ccc(Oc2ccc(Cl)cc2Cl)cc1 (centres unmarked) [(B1.2.3), diclofop-methyl]
Herbicidal action (%) against Lolium multiflorum (Lolium multiflorum; wheat field trial, 500 g of a.s./ha, application at 3-leaf stage): 60%
Herbicidal action (%) against Lolium multiflorum (Lolium multiflorum; wheat field trial, 750 g of a.s./ha, application at 3-leaf stage): 83%

COc1cc(OC)nc(NC(=O)NS(=O)(=O)c2nc(C(F)(F)F)ccc2C(=O)O)n1 [(B1.2.6), flupyrsulfuron]
pest or weed control at 7.5 g/ha (Lolium multiflorum; [1]): 25%

COC(=O)c1ccccc1S(=O)(=O)NC(=O)Nc1nc(C)nc(OC)n1 [(B2.1), metsulfuron-methyl]
Herbicidal action (%) against Lamium purpureum (Lamium purpureum; 3 g of a.s./ha): 75%

COC(=O)c1ccc(NS(C)(=O)=O)cc1S(=O)(=O)NC(=O)Nc1nc(OC)cc(OC)n1 [(B2.3), methyl 4-methylsulfonylamino-2-(4,6-dimethoxypyrimidin-2-ylcarbamoylsulfamoyl)benzoate]
pest or weed control at 5 g/ha (Lolium multiflorum; Lolium multiflorum, wheat field trial, 5 g of a.s./ha, application at 3-leaf stage, scoring after application, read-out: Herbicidal action (%) against Lolium multiflorum): 65%

CCS(=O)(=O)c1nc2ccccn2c1S(=O)(=O)NC(=O)Nc1nc(OC)cc(OC)n1 [(B2.6), sulfosulfuron]
pest or weed control at 20 g/ha (Lolium multiflorum; Lolium multiflorum, wheat field trial, 20 g of a.s./ha, application at 3-leaf stage, scoring after application, read-out: Herbicidal action (%) against Lolium multiflorum): 35%

COC(=O)c1ccccc1S(=O)(=O)NC(=O)N(C)c1nc(C)nc(OC)n1 [(B4.1.1), tribenuron-methyl]
Herbicidal action (%) against Lamium purpureum (Lamium purpureum; 15 g of a.s./ha): 68%

COc1cc(OC)nc(NC(=O)NS(=O)(=O)N(C)S(C)(=O)=O)n1 [(B4.1.2), amidosulfuron]
Herbicidal action (%) against Galium aparine (Galium aparine; 20 g of a.s./ha): 75%

CCOC(=O)/C(Cl)=C/c1cc(N2C(=O)C3=C(CCCC3)C2=O)ccc1Cl [(B4.1.6), cinidon-ethyl]
Herbicidal action (%) against Galium aparine (Galium aparine; 35 g of a.s./ha): 65%

Cc1cc(Cl)ccc1O[C@@H](C)C(=O)O [(B4.2.2), CMPP-P]
Herbicidal action (%) against Galium aparine (Galium aparine; 750 g of a.s./ha): 73%

Cc1cc(Cl)ccc1OCC(=O)O [(B4.2.4), MCPA]
Herbicidal action (%) against Ambrosia maritima (Ambrosia maritima; 500 g of a.s./ha): 0%

Nc1c(Cl)c(F)nc(OCC(=O)O)c1Cl [(B4.2.5), fluroxypyr]
Herbicidal action (%) against Galium aparine (Galium aparine; 120 g of a.s./ha): 75%

N#Cc1cc(Br)c(O)c(Br)c1 [(B4.3.1), bromoxynil]
Herbicidal action (%) against Lamium purpureum (Lamium purpureum; 180 g of a.s./ha): 55%
Herbicidal action (%) against Lamium purpureum (Lamium purpureum; 360 g of a.s./ha): 83%

CCOC(=O)C(Cl)Cc1cc(-n2nc(C)n(C(F)F)c2=O)c(F)cc1Cl (centres unmarked) [(B4.4.1), carfentrazone-ethyl]
Herbicidal action (%) against Galium aparine (Galium aparine; 10 g of a.s./ha): 45%
Herbicidal action (%) against Galium aparine (Galium aparine; 20 g of a.s./ha): 55%

CCOC(=O)COc1cc(-c2nn(C)c(OC(F)F)c2Cl)c(F)cc1Cl [(B4.4.2), pyraflufen-ethyl]
Herbicidal action (%) against Alopecurus myosuroides (Alopecurus myosuroides; 10 g of a.s./ha): 0%
Herbicidal action (%) against Digitaria Sanguinalis (Digitaria Sanguinalis; 10 g of a.s./ha): 0%

O=C(Nc1ccc(F)cc1F)c1cccnc1Oc1cccc(C(F)(F)F)c1 [Diflu, diflufenican]
pest or weed control at 150 g/ha (Lolium multiflorum; Lolium multiflorum, wheat field trial, 150 g of a.s./ha, application at 3-leaf stage, scoring after application, read-out: Herbicidal action (%) against Lolium multiflorum): 35%

From patent US20030022792A1, “HERBICIDAL COMPOSITIONS FOR TOLERANT OR RESISTANT CEREAL CROPS” (priority 1998, published 2003)
